Values quoted from earlier work in patent EP0188214A2, “Novel growth hormone-releasing peptides and method of treating mammals therewith” (The Administrators of The Tulane University Educational Fund, priority 1985, dated 1986).
Ends that are not written are not given here.

Tested on: rat anterior pituitary
Conditions: rat anterior pituitary in vitro and in vivo; literature

Substance	growth hormone(GH)-releasing activity
hp GRF(1-29)-NH2: synthetic amidated fragment of the natural hp GRF (YADAIFTNSYRKVLGQLSARKLLQDIMSR-NH2; UniProt P01286 32-60, looked up, fragment)	full intrinsic biological activity
hpGRF: growth hormone-releasing factors (GRF) of human pancreatic islet tumor origin (YADAIFTNSYRKVLGQLSARKLLQDIMSRQQGESNQERGARARL; ends and bridges not checked; UniProt P01286 32-75, looked up)	possess growh hormone(GH)-releasing activity
